From patent US20240270809A1, “ORAL GLP RECEPTOR AGONISTS” (priority 2020, published 2024)
Positions of bridges follow the written chain, without caps; N, C: chain ends. Non-standard residues stand in square brackets, D forms with d. Residues, ends and D or L forms follow the SMILES beside them. *: point of attachment. Malonyl(2,2-Me2,histaminyl) = CC(C)(C(=O)NCCc1cnc[nH]1)C(=O)*; Ala(1H-tetrazol-5-yl) = N[C@@H](Cc1nnn[nH]1)C(=O)O; αMePhe(2-F) = C[C@](N)(Cc1ccccc1F)C(=O)O; αMeL = CC(C)C[C@](C)(N)C(=O)O; Nle = CCCC[C@H](N)C(=O)O; Aib = CC(C)(N)C(=O)O; Alloc = C=CCOC(=O)*

Key:
human GLP1 receptor = target: T1, human GLP1 receptor (Homo sapiens, UniProt P43220); assay: cAMP accumulation assay, functional agonism of human GLP1 receptor; assay type: cell-based; conditions: HEK cells infected with human GLP1 receptor BacMam virus, HTRF cAMP; for Emax: HEK293, read-out: Human GLP-1R agonist cAMP Emax; for EC50: read-out: Human GLP-1R agonist cAMP pEC50 (converted)
T1 construct: expressed in transfected cells; host or cells: HEK cells, BacMam virus transduction
Procedure: (§1) CAMP production upon agonist stimulation of human GLP2 or GLP1 receptor was assessed utilizing HiRange cAMP kit (Cisbio). In brief, HEK cells were infected with either human GLP2 or GLP1 receptor BacMam virus for 24 hours and frozen for later use in the assay. […] Cells were prepared in the assay buffer (HBSS (Lonza) supplemented with 0.5 mM IBMX (Tocris)). After 45 min incubation at 37° C., the reaction was stopped by addition of the HTRF detection reagents in the lysis buffer provided in the kit.

human GLP2 receptor = target: T2, human GLP2 receptor (Homo sapiens, UniProt O95838); assay: cAMP accumulation assay, functional agonism of human GLP2 receptor; assay type: cell-based; conditions: HEK cells infected with human GLP2 receptor BacMam virus, HTRF cAMP; for Emax: HEK293, read-out: Human GLP-2R agonist cAMP Emax; for EC50: read-out: Human GLP-2R agonist cAMP pEC50 (converted)
T2 construct: expressed in transfected cells; host or cells: HEK cells, BacMam virus transduction
T2 sequence (O95838 1-553): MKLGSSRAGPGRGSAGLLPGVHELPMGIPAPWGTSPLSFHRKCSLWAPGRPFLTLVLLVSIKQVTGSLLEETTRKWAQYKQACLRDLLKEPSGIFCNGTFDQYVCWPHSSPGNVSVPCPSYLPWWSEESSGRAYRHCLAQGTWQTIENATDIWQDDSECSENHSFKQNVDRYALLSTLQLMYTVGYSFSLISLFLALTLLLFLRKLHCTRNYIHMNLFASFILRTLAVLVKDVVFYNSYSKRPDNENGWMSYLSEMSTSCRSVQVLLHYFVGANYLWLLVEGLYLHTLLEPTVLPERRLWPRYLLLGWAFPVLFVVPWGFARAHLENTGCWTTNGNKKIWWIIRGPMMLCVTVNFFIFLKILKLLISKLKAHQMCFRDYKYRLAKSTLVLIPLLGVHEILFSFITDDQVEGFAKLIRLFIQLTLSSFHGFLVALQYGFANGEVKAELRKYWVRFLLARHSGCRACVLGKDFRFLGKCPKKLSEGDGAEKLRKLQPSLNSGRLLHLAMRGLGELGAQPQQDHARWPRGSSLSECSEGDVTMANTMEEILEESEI
Procedure: as §1

T1 sequence (P43220 24-463): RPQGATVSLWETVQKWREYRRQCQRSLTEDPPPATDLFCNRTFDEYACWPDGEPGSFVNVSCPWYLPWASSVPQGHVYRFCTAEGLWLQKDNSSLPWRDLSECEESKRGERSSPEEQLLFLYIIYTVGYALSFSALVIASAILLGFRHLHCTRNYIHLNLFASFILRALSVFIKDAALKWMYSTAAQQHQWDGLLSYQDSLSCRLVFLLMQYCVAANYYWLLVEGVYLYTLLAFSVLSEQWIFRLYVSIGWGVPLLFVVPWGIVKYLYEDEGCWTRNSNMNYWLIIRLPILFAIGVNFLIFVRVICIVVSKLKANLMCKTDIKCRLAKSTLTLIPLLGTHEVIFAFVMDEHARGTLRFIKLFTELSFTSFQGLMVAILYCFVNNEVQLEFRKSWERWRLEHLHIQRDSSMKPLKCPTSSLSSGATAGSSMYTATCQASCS

Row | SMILES | Emax (human GLP1 receptor) | Emax (human GLP2 receptor) | EC50 (human GLP1 receptor) | EC50 (human GLP2 receptor)
1 | CCCC[C@@H]1NC(=O)[C@H](CCC(=O)O)NC(=O)[C@@H](NC(=O)[C@H](CO)NC(=O)[C@H](Cc2ccccc2)NC(=O)[C@H](CO)NC(=O)CNC(=O)[C@H](Cc2nn[nH]n2)NC(=O)C(C)(C)C(=O)NCCc2c[nH]cn2)CCCCNC(=O)C[C@@H](C(=O)N[C@H](C(=O)N[C@@H](CC(C)C)C(=O)N[C@@H](CC(=O)O)C(=O)N[C@H]2CCC(=O)NCCCC[C@@H](C(=O)N[C@@H](CC(=O)O)C(=O)N[C@@H](Cc3ccccc3)C(=O)N[C@H](C(=O)N[C@@H](CC(N)=O)C(=O)N[C@@H](Cc3c[nH]c4ccccc34)C(=O)N[C@@H](CC(C)C)C(=O)N[C@H](C(=O)N[C@@H](CCC(N)=O)C(=O)N[C@H](C(=O)N[C@H]3CCC(=O)NCCCC[C@@H](C(N)=O)NC(=O)[C@H]([C@@H](C)O)NC(=O)[C@H]([C@@H](C)CC)NC3=O)[C@@H](C)O)[C@@H](C)CC)[C@@H](C)CC)NC(=O)C(C)(C)NC(=O)C(C)(C)NC(=O)[C@H](CCCCN)NC2=O)[C@@H](C)CC)NC(=O)[C@@H](Cc2ccccc2)NC1=O [Example 16] ({Malonyl(2,2-Me2,histaminyl)}-[Ala(1H-tetrazol-5-yl)]GSFSKE[Nle][dF]DILDEK[Aib][Aib]KDFINWLIQTEITK-NH2; lactam 6-10, 14-18, 28-31; C-terminus assumed) | 94.1% | 104% | 0.631 nM | 0.251 nM
2 | C=CCOC(=O)NCCCC[C@@H]1NC(=O)[C@@H](NC(=O)[C@H](CC(=O)O)NC(=O)[C@H](CC(C)C)NC(=O)[C@@H](NC(=O)[C@@H]2CC(=O)NCCCC[C@H](NC(=O)[C@H](CO)NC(=O)[C@H](Cc3ccccc3)NC(=O)[C@H](CO)NC(=O)CNC(=O)[C@H](Cc3nn[nH]n3)NC(=O)C(C)(C)C(=O)NCCc3c[nH]cn3)C(=O)N[C@@H](CCC(=O)O)C(=O)N[C@@H](CCCC)C(=O)N[C@H](Cc3ccccc3)C(=O)N2)[C@@H](C)CC)CCC(=O)NCCCC[C@@H](C(=O)N[C@@H](CC(=O)O)C(=O)N[C@@H](Cc2ccccc2)C(=O)N[C@H](C(=O)N[C@@H](CC(N)=O)C(=O)N[C@@H](Cc2c[nH]c3ccccc23)C(=O)N[C@@H](CC(C)C)C(=O)N[C@H](C(=O)N[C@@H](CCC(N)=O)C(=O)N[C@H](C(=O)N[C@H]2CCC(=O)NCCCC[C@@H](C(N)=O)NC(=O)[C@H]([C@@H](C)O)NC(=O)[C@H]([C@@H](C)CC)NC2=O)[C@@H](C)O)[C@@H](C)CC)[C@@H](C)CC)NC(=O)[C@H](C)NC(=O)[C@H](C)NC1=O [Example 23] ({Malonyl(2,2-Me2,histaminyl)}-[Ala(1H-tetrazol-5-yl)]GSFSKE[Nle][dF]DILDEK(Alloc)AAKDFINWLIQTEITK-NH2; lactam 6-10, 14-18, 28-31 (inferred); C-terminus assumed) | 94.3% | 102% | 0.794 nM | 0.0251 nM
3 | CCCC[C@@H]1NC(=O)[C@H](CCC(=O)O)NC(=O)[C@@H](NC(=O)[C@H](CO)NC(=O)[C@](C)(Cc2ccccc2F)NC(=O)[C@H](CO)NC(=O)[C@@H](C)NC(=O)[C@H](CC(=O)O)NC(=O)C(C)(C)C(=O)NCCc2c[nH]cn2)CCCCNC(=O)C[C@@H](C(=O)N[C@@](C)(CC(C)C)C(=O)N[C@@H](CC(C)C)C(=O)N[C@@H](CC(=O)O)C(=O)N[C@H]2CCC(=O)NCCCC[C@@H](C(=O)N[C@@H](CC(=O)O)C(=O)N[C@@H](Cc3ccccc3)C(=O)N[C@H](C(=O)N[C@@H](CC(N)=O)C(=O)N[C@@H](Cc3c[nH]c4ccccc34)C(=O)N[C@@H](CC(C)C)C(=O)N[C@H](C(=O)N[C@@H](CCC(N)=O)C(=O)N[C@H]3CCC(=O)NCCCC[C@@H](C(N)=O)NC(=O)[C@H]([C@@H](C)O)NC(=O)[C@H]([C@@H](C)CC)NC(=O)[C@H](CCCCN)NC3=O)[C@@H](C)CC)[C@@H](C)CC)NC(=O)[C@H](C)NC(=O)[C@H](C)NC(=O)[C@H](CCCCN)NC2=O)NC(=O)[C@@H](Cc2ccccc2)NC1=O [Example 25] ({Malonyl(2,2-Me2,histaminyl)}-D[dA]S[αMePhe(2-F)]SKE[Nle][dF]D[αMeL]LDEKAAKDFINWLIQEKITK-NH2; lactam 6-10, 14-18, 27-31 (inferred); C-terminus assumed) | 97.6% | 103% | 0.0316 nM | 0.0251 nM

More lines, now with the values ahead:

Row | Emax (human GLP1 receptor) | Emax (human GLP2 receptor) | EC50 (human GLP1 receptor) | EC50 (human GLP2 receptor) | SMILES
4 | 92.5% | 104% |  |  | CCCC[C@H](NC(=O)[C@H](CCC(=O)O)NC(=O)[C@@H]1CC(=O)NCCCC[C@H](NC(=O)[C@H](CC(=O)O)NC(=O)C(C)(C)NC(=O)[C@@H](N)Cc2c[nH]cn2)C(=O)N[C@@H](CO)C(=O)N[C@@H](Cc2ccccc2)C(=O)N[C@@H](CO)C(=O)N1)C(=O)N[C@H](Cc1ccccc1)C(=O)N[C@H]1CCC(=O)NCCCC[C@@H](C(=O)N[C@@H](CCCCN)C(=O)N[C@@H](C)C(=O)N[C@@H](C)C(=O)NC(C)(C)C(=O)N[C@@H](CC(=O)O)C(=O)N[C@@H](Cc2ccccc2)C(=O)N[C@H](C(=O)N[C@H]2CCC(=O)NCCCC[C@@H](C(=O)N[C@H](C(=O)N[C@@H](CCCCN)C(N)=O)[C@@H](C)O)NC(=O)[C@H]([C@@H](C)CC)NC(=O)[C@H](CC(C)C)NC(=O)[C@H](Cc3c[nH]c4ccccc34)NC2=O)[C@@H](C)CC)NC(=O)[C@H](CC(=O)O)NC(=O)[C@H](CC(C)C)NC(=O)[C@H]([C@@H](C)CC)NC1=O [Example 5] (H-H[Aib]DKSFSDE[Nle][dF]EILDKKAA[Aib]DFIEWLIKTK-NH2; lactam 4-8, 12-16, 24-28 (inferred); N-terminus and C-terminus assumed)
5 | 96.8% | 103% | 0.2 nM | 0.00794 nM | CCCC[C@@H]1NC(=O)[C@H](CCC(=O)O)NC(=O)[C@@H](NC(=O)[C@H](CO)NC(=O)[C@H](Cc2ccccc2)NC(=O)[C@H](CO)NC(=O)[C@@H](C)NC(=O)[C@H](Cc2nn[nH]n2)NC(=O)C(C)(C)C(=O)NCCc2c[nH]cn2)CCCCNC(=O)C[C@@H](C(=O)N[C@@](C)(CC(C)C)C(=O)N[C@@H](CC(C)C)C(=O)N[C@@H](CC(=O)O)C(=O)N[C@H]2CCC(=O)NCCCC[C@@H](C(=O)N[C@@H](CC(=O)O)C(=O)N[C@@H](Cc3ccccc3)C(=O)N[C@H](C(=O)N[C@@H](CC(N)=O)C(=O)N[C@@H](Cc3c[nH]c4ccccc34)C(=O)N[C@@H](CC(C)C)C(=O)N[C@H](C(=O)N[C@@H](CCC(N)=O)C(=O)N[C@H]3CCC(=O)NCCCC[C@@H](C(N)=O)NC(=O)[C@H]([C@@H](C)O)NC(=O)[C@H]([C@@H](C)CC)NC(=O)[C@H](CCCCN)NC3=O)[C@@H](C)CC)[C@@H](C)CC)NC(=O)[C@H](C)NC(=O)[C@H](C)NC(=O)[C@H](CCCCN)NC2=O)NC(=O)[C@@H](Cc2ccccc2)NC1=O [Example 24] ({Malonyl(2,2-Me2,histaminyl)}-[Ala(1H-tetrazol-5-yl)][dA]SFSKE[Nle][dF]D[αMeL]LDEKAAKDFINWLIQEKITK-NH2; lactam 6-10, 14-18, 27-31 (inferred); C-terminus assumed)
6 | 96% | 99.6% | 0.0794 nM | 0.316 nM | CCCC[C@H](NC(=O)[C@H](CCC(=O)O)NC(=O)[C@@H]1CC(=O)NCCCC[C@H](NC(=O)[C@H](CCC(=O)O)NC(=O)C(C)(C)NC(=O)[C@@H](N)Cc2c[nH]cn2)C(=O)N[C@@H](CO)C(=O)N[C@@H](Cc2ccccc2)C(=O)N[C@@H](CO)C(=O)N1)C(=O)N[C@H](Cc1ccccc1)C(=O)N[C@H](C(=O)N[C@@](C)(CC(C)C)C(=O)N[C@@H](CC(C)C)C(=O)N[C@@H](CC(=O)O)C(=O)N[C@H]1CCC(=O)NCCCC[C@@H](C(=O)N[C@@H](CC(=O)O)C(=O)N[C@@H](Cc2ccccc2)C(=O)N[C@H](C(=O)N[C@H]2CCC(=O)NCCCC[C@@H](C(=O)N[C@H](C(=O)N[C@@H](CCCCN)C(N)=O)[C@@H](C)O)NC(=O)[C@H]([C@@H](C)CC)NC(=O)[C@H](CC(C)C)NC(=O)[C@H](Cc3c[nH]c4ccccc34)NC2=O)[C@@H](C)CC)NC(=O)[C@H](C)NC(=O)[C@H](C)NC(=O)[C@H](CCCCN)NC1=O)[C@@H](C)O [Example 28] (H-H[Aib]EKSFSDE[Nle][dF]T[αMeL]LDEKAAKDFIEWLIKTK-NH2; lactam 4-8, 16-20, 24-28 (inferred); C-terminus assumed)
